These results are taken from US20170280720A1, “ARGININE […] INHIBITORS AND USES THEREOF” (EPIZYME, INC., priority 2014, published 2017).

This assay has as its target T1, Human CARM1 (PRMT4) (Homo sapiens, UniProt Q86X55).
T1 construct: Flag-CARM1-His; made in house; host or cells: HEK 293F cells (BacMam baculovirus, pFastBacMam)
T1 sequence (Q86X55 2-585 isoform Q86X55-1): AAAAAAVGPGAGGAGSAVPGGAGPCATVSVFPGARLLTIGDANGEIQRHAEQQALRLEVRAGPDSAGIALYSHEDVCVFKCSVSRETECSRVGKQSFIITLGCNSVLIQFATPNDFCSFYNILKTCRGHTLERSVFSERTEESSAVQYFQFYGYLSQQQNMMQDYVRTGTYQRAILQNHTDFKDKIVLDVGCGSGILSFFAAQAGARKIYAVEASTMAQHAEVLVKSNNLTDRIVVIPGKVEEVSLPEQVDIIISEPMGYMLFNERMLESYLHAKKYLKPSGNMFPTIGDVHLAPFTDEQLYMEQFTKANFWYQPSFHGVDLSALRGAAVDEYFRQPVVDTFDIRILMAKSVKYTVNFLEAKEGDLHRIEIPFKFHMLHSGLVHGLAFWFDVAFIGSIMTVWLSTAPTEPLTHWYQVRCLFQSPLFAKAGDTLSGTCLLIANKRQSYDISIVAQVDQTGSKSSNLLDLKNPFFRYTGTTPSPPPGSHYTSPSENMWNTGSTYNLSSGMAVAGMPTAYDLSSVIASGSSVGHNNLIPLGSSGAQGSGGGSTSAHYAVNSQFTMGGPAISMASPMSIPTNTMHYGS
Put plainly: CARM1 biochemical assay (3H-SAM Flashplate, peptide substrate). The following applies: read-out: CARM1_ IC50. The procedure, abridged: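 FLAG/His-tagged human CARM1 (isoform 1, Δ539-561, baculovirus-expressed), 0.25 nM, preincubated 30 min at room temperature with compound (2% DMSO) in 20 mM Bicine pH 7.6, then reacted with 30 nM 3H-SAM and 250 nM biotinylated H3 16-30 peptide (R26 monomethyl). Stopped with 300 uM cold SAM; labelled peptide captured on streptavidin Flashplate; % inhibition versus DMSO and 1 mM SAH controls fitted to a 4- or 3-parameter curve.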

Where a name gives a salt, the structure may show the parent alone.

One may read the IC50 as the concentration at which inhibition is half-maximal. Regarding `COc1cccc(-n2cnc3ccc(-c4ccc(CNCCN)cc4)cc32)c1` [Compound 110], the half-maximal inhibitory concentration (IC50) was 10600 nM. In the case of `CNCCN(C)Cc1cccc(-c2nc(NCc3cn4ccsc4n3)c3cnn(C4CC4)c3n2)c1` [Compound 6], the IC50 was found to be 23.8 nM. Next, `CNCCN(C)Cc1cccc(-c2nc(NC3CC3)c3cnn(C4CC4)c3n2)c1` [Compound 114]: 17.9 nM; `CNCCN(C)Cc1cccc(-c2cc(C(=O)NCCC(=O)NCC3CCOCC3)c3cnn(C(C)C)c3n2)c1` [Compound 64]: 24.9 nM; `CNCCN(C)Cc1cccc(-c2cc(C(=O)NCCCCC(=O)NCC3CCOCC3)c3cnn(C(C)C)c3n2)c1` [Compound 118]: 18 nM.

`CC(C)n1ncc2c(C(=O)NCC3CCOCC3)cc(-c3cccc(CN(C)CCN)c3)nc21` [Compound 108]: the IC50 is 10.4 nM. In the case of `Cc1c(C(=O)NCc2ccccc2)cc(-c2ccc(CN(C)CCN)cc2)c2cn[nH]c12` [Compound 7] it was 6830 nM; in that of `CNCCN(C)Cc1cccc(-c2ccc3nc[nH]c3c2)c1` [Compound 75], 10000 nM. Next, `CNCCN(C)Cc1cccc(-c2cc(N3CCC(C(F)(F)F)CC3)c3cnn(C(C)C)c3n2)c1` [Compound 50]: 27.6 nM; `CNCCN(C)Cc1cccc(-c2cc(C(=O)NCc3cc(C)nn3C)c3cnn(C(C)C)c3n2)c1` [Compound 120]: 35.6 nM. `CC(C)n1ncc2c(NS(=O)(=O)N(C)C)cc(-c3cccc(CN(C)CCN)c3)nc21` [Compound 107]: the IC50 was determined as 25.8 nM. Next, `CNCCN(C)Cc1cccc(-c2nc(NCc3ccncc3)c3cnn(C4CC4)c3n2)c1` [Compound 69]: 19.5 nM; `CNCCN(C)Cc1cccc(-c2cc(NC(=O)NC(C)C)c3cnn(C(C)C)c3n2)c1` [Compound 85]: 14 nM.

Consider `CNCCN(C)Cc1cccc(-c2cc(C#N)c3cnn(C(C)C)c3n2)c1` [Compound 74], for which the IC50 was found to be 38.4 nM. Next, `CNCCN(C)Cc1cccc(-c2cc(NC3CCOCC3)c3cnn(C(C)C)c3n2)c1` [Compound 76]: 13.2 nM; `CNCCN(C)Cc1cccc(-c2cc(C(=O)NCCCCCC(=O)NCc3ccn(C)n3)c3cnn(C(C)C)c3n2)c1` [Compound 117]: 33.4 nM; `Cc1ccc(Cn2cnc3ccc(-c4ccc(CNCCN)cc4)cc32)cc1` [Compound 97]: 8190 nM. In the case of `CNCCN(C)Cc1cccc(-c2cc(OC3CCOC3)c3cnn(C(C)C)c3n2)c1` (stereo not drawn) [Compound 102], the IC50 stood at 22.4 nM. Next, `CNCCN(C)Cc1cccc(-c2cc(N3CCC(C#N)CC3)c3cnn(C(C)C)c3n2)c1` [Compound 93]: 10.6 nM. Next, `CC(C)n1ncc2c(N3CCOCC3)cc(-c3cccc(CN(C)CCN)c3)nc21` [Compound 61, N1-(3-(1-isopropyl-4-morpholino-1H-pyrazolo[3,4-b]pyridin-6-yl)benzyl)-N1-methylethane-1,2-diamine]: 5.22 nM; `CC(C)n1ncc2c(NC(=O)N(C)C)cc(-c3cccc(CN(C)CCN)c3)nc21` [Compound 116]: 23.4 nM. Next, `CNCCN(C)Cc1cccc(-c2cc(N3CCCC(C#N)C3)c3cnn(C(C)C)c3n2)c1` (stereo not drawn) [Compound 55]: 35.5 nM; `CCC(O)c1cc(-c2cccc(CN(C)CCNC)c2)nc2c1cnn2C(C)C` (stereo not drawn) [Compound 48]: 154 nM. As for `CNCCN(C)Cc1cccc(-c2cc(NC3COC3)c3cnn(C(C)C)c3n2)c1` [Compound 58], the IC50 is 22.2 nM. Next, `COC(=O)Nc1cc(-c2cccc(CN(C)CCN)c2)nc2c1cnn2C(C)C` [Compound 71]: 10.6 nM; `CC(C)n1cc2c(Cl)cc(-c3cccc(CN(C)CCN)c3)nc2n1` [Compound 59]: 707 nM.

Regarding `COc1ccccc1Cn1cnc2ccc(-c3ccc(CNCCN)cc3)cc21` [Compound 80], the half-maximal inhibitory concentration (IC50) came out at 4810 nM. Turning to `CNCCN(C)Cc1cccc(-c2cc(OC)c3cnn(C(C)C)c3n2)c1` [Compound 124], the concentration for half-maximal inhibition (IC50) was found to be 75.5 nM. Next, `COc1cccc(CCn2cnc3ccc(-c4ccc(CNCCN)cc4)cc32)c1` [Compound 94]: 4270 nM; `CNCCN(C)Cc1cccc(-c2ccc3ncn(C)c3c2)c1` [Compound 92]: 6490 nM. Next, `COc1ccccc1-c1nc2ccc(-c3ccc(CNCCN)cc3)cc2[nH]1` [Compound 115]: 6870 nM; `CNCCN(C)Cc1cccc(-c2cc(C(=O)NCCC(=O)NCc3ccn(C)n3)c3cnn(C(C)C)c3n2)c1` [Compound 83]: 25.7 nM. In the case of `CC(C)n1ncc2c(NC3CCOCC3)cc(-c3cccc(CN(C)CCN)c3)nc21` [Compound 101] it was 5.11 nM; in that of `CCNc1cc(-c2cccc(CN(C)CCNC)c2)nc2c1cnn2C(C)C` [Compound 72], 109 nM. Consider `CNCCN(C)Cc1cccc(-c2nc(NCc3ccccn3)c3cnn(C4CC4)c3n2)c1` [Compound 9], for which the concentration for half-maximal inhibition (IC50) came out at 7.59 nM. In the case of `Cc1c(CNc2nc(-c3cccc(CN(C)CCN)c3)nc3c2cnn3C2CC2)cnn1C` [Compound 52] it was 4.04 nM.

As for `CN(CCN)Cc1cccc(-c2nc(N(C)C3CCOCC3)c3cnn(C4CC4)c3n2)c1` [Compound 119], the half-inhibitory concentration (IC50) was 4.77 nM. For `CNCCN(C)Cc1cccc(-c2cc(C(=O)NCC3CCOCC3)c3cnn(C(C)C)c3n2)c1` [Compound 105], the half-maximal inhibitory concentration (IC50) turned out to be 18.1 nM. In the case of `CCOC(=O)c1cc(-c2cccc(CN(C)CCNC)c2)nc2c1cnn2C(C)C` [Compound 78] it was 18 nM.

As to `CNCCN(C)Cc1cccc(-c2cc(C(=O)NCCCC(=O)NCc3ccn(C)n3)c3cnn(C(C)C)c3n2)c1` [Compound 88], the half-maximal inhibitory concentration (IC50) was determined as 16.5 nM.

Take `CNCCN(C)Cc1cccc(-c2cnc3c(c2)c(C2CC2)nn3CC2CCOCC2)c1` [Compound 4]: the half-maximal inhibitory concentration (IC50) turned out to be 1400 nM. On to `CCOc1cc(-c2cccc(CN(C)CCNC)c2)nc2c1cnn2C(C)C` [Compound 53], for which the concentration for half-maximal inhibition (IC50) came to 19.9 nM. In the case of `CNCCN(C)Cc1cccc(-c2nc(N3CCOCC3)c3cnn(C(C)C)c3n2)c1` [Compound 99] it was 11.3 nM; in that of `CC(C)n1ncc2c(C(=O)N[C@@H](C)c3ccccc3)cc(-c3cccc(CNCCN)c3)cc21` [Compound 125], 75.8 nM.

For `CCS(=O)(=O)Nc1cc(-c2cccc(CN(C)CCN)c2)nc2c1cnn2C(C)C` [Compound 111], the concentration for half-maximal inhibition (IC50) amounted to 131 nM.

For `CC(C)n1ncc2c(NC(=O)OCc3ccccc3)cc(-c3cccc(CN(C)CCN)c3)nc21` [Compound 84], the IC50 was 13.7 nM.

In the case of `CNCCN(C)Cc1cccc(-c2cc(C(=O)N3CCCCC3)c3cnn(C(C)C)c3n2)c1` [Compound 56], the IC50 came to 219 nM. As for `CNCCN(C)Cc1cccc(-c2cc(NC(=O)N(C)C)c3cnn(C(C)C)c3n2)c1` [Compound 123], the half-inhibitory concentration (IC50) was 29.6 nM.

Consider `CNCCN(C)Cc1cccc(-c2cc(C(=O)NCCCCC(=O)NCc3ccn(C)n3)c3cnn(C(C)C)c3n2)c1` [Compound 122], for which the IC50 is 13.5 nM. In the case of `CNCCN(C)Cc1cccc(-c2cc(N(C)C)c3cnn(C(C)C)c3n2)c1` [Compound 103] it was 57.7 nM. In the case of `CNCCN(C)Cc1cccc(-c2cc(N3CCOCC3)n3ncc(C(C)C)c3n2)c1` [Compound 62, N1-(3-(3-isopropyl-7-morpholinopyrazolo[1,5-a]pyrimidin-5-yl)benzyl)-N1,N2-dimethylethane-1,2-diamine formate] it was 20.8 nM; in that of `CNCCN(C)Cc1cccc(-c2cc(N(C)C3CC3)c3cnn(C(C)C)c3n2)c1` [Compound 95], 36.5 nM; in that of `CNCCN(C)Cc1cccc(-c2cc(N3CCC3)c3cnn(C(C)C)c3n2)c1` [Compound 79], 14.5 nM. In the case of `Cc1ccccc1Cn1cnc2ccc(-c3ccc(CNCCN)cc3)cc21` [Compound 82] it was 8130 nM; in that of `CNCCN(C)Cc1cccc(-c2cc(-c3ccoc3)c3cnn(C(C)C)c3n2)c1` [Compound 67], 28.1 nM. As to `CNCCN(C)Cc1cccc(-c2cc(-c3cnn(C)c3)c3cnn(C(C)C)c3n2)c1` [Compound 49, N1-(3-(1-isopropyl-4-(1-methyl-1H-pyrazol-4-yl)-1H-pyrazolo[3,4-b]pyridin-6-yl)benzyl)-N1,N2-dimethylethane-1,2-diamine], the IC50 was determined as 12.4 nM.

`CNCCN(C)Cc1cccc(-c2nc(N(C)C3CCOCC3)c3cnn(C4CC4)c3n2)c1` [Compound 109, N1-(3-(1-cyclopropyl-4-(methyl(tetrahydro-2H-pyran-4-yl)amino)-1H-pyrazolo[3,4-d]pyrimidin-6-yl)benzyl)-N1,N2-dimethylethane-1,2-diamine]: the IC50 is 5.02 nM. Next, `CNCCN(C)Cc1cccc(-c2cc(C(=O)NCCCCCC(=O)NCC3CCOCC3)c3cnn(C(C)C)c3n2)c1` [Compound 112]: 23.9 nM; `CNCCN(C)Cc1cccc(-c2cc(N3CCOCC3)c3cnn(C(C)C)c3n2)c1` [Compound 68]: 9.84 nM; `CN(CCN)Cc1cccc(-c2nc(NCc3ccncc3)c3cnn(C4CC4)c3n2)c1` [Compound 66]: 6.32 nM.
